{"source": "patent US20250144020A1", "about": "“ULTRA-LONG FLOATING HYDROGEL RAFT FOR PROLONGED GASTRIC RETENTION AND APPLICATIONS REQUIRING BUOYANCY WITH CONTROLLED-RELEASE” (Nanyang Technological University, priority 2022, published 2025)", "key": {"[1]": {"settings": "cited from earlier work"}, "[2]": {"assay": "In vitro release of MT in FaSGF with model fitting", "format": "physicochemical", "settings": "37° C., 150 rpm", "protocol": "Receptacle cap type rafts were used for the release studies as the receptacle allows the loading of the FD, MP, and FM. The receptacle cap assembly also ensures that the system can be adopted for other drugs easily. This design was used to prevent the interaction of drugs with water in the hydrogel. 100 mg of free drug MT was weighed in triplicates and added to the receptacle of the raft before closing the lid to complete the assembly. Similarly, 20 mg of the MPs (prepared in Example 7) or one FM (prepared in Example 8) was weighed in replicates and added to the receptacle of the raft and closed with cap to obtain the raft containing MT in different forms. Drug forms that were not encased in the raft served as controls.\nRequired amounts of FD, MP, or FM were added to the receptacle of the raft, and the cap was used to close the structure to obtain FD encased in raft (FD-R), MP encased in raft (MP-R), and FM encased in raft (FM-R). This raft assembly was then tested under simulated gastric conditions using FaSGF in a shaking incubator (150 rpm) at 37° C. All experiments were carried out in triplicates. […] The collected samples were analyzed for the drugs using HPLC. For MT, acetonitrile:PBS (60:40) (PBS adjusted to pH 4.7) was used as the mobile phase at a flow rate of 0.8 ml/min and detected at 244 nm. […]"}, "[3]": {"assay": "In vitro release of Ris in FaSGF with model fitting", "format": "physicochemical", "settings": "not encased in raft", "description": "This raft assembly was then tested under simulated gastric conditions using FaSGF in a shaking incubator (150 rpm) at 37° C. All experiments were carried out in triplicates. At specified time points, the release media were collected and replaced with an equal volume of fresh FaSGF. The collected samples were analyzed for the drugs using HPLC. […] Each drug form, without the raft, served as a control. To elucidate the mechanism of drug release, the release data were fitted to mathematical models.\nFour different forms of the drug were used: 1. free drug; 2. commercial tablet; 3. drug encapsulated MPs; and 4. drug encapsulated FMes. […] Each drug form, without the raft, served as a control.\nReceptacle cap type rafts were used for the release studies as the receptacle allows the loading of the FD, MP, and FM. […] Drug forms that were not encased in the raft served as controls."}}, "note": "Counter-ions that a name gives are not always drawn."}
{"smiles": "COCCc1ccc(OCC(O)CNC(C)C)cc1", "note": "(stereo not shown) [MT, metoprolol tartrate]", "values": [{"measurement": "water solubility (in words)", "setting": "[1]", "result": "water-soluble"}, {"measurement": "time of MT release (sustained over / dissolved completely in), in words", "setting": "[2]", "result": "one hour"}]}
{"smiles": "Cc1nc2n(c(=O)c1CCN1CCC(c3noc4cc(F)ccc34)CC1)CCCC2", "note": "[Ris, Risperidone]", "values": [{"measurement": "water solubility (in words)", "setting": "[1]", "result": "insoluble in water"}, {"measurement": "time to complete dissolution, uncased", "setting": "[3]", "result": 1, "unit": "h"}]}
